What is called Ki is a measure of affinity in units of concentration, obtained from inhibition or displacement.

Sequence of memapsin 2 (P56817 46-501): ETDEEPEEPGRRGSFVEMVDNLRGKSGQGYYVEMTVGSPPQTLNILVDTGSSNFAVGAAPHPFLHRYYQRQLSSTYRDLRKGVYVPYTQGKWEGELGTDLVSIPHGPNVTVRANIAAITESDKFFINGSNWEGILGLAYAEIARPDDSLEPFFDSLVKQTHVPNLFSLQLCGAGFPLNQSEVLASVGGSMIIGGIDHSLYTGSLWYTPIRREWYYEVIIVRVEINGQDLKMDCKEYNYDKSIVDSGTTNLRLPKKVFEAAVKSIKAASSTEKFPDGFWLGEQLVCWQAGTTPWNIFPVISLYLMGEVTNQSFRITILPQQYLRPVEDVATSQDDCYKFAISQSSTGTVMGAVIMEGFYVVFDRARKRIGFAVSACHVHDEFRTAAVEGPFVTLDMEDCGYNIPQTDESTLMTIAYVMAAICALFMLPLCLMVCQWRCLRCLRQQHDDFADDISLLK

For this assay, the target named is memapsin 2 (Homo sapiens, UniProt P56817). In words: Inhibition of memapsin 2 beta-secretase activity (fluorogenic substrate FS-2). The assay is classed as biochemical. As to conditions: pH 4, 37° C., read-out: M2 Ki. How it is done:
Potency of compounds were determined by measurement of their inhibition of memapsin 2 activity toward a fluorescent substrate. Kinetic inhibition experiments were performed using the procedure as described in Ermolieff, et al. (Biochemistry 39:12450-12456 (2000), the teachings of which are incorporated hereby in their entirety). Briefly, assays were performed at pH 4, 37° C., by pre-incubation of memapsin 2 enzyme with compound for 20 minutes. Activity measurements were initiated by addition of a fluorogenic substrate FS-2 (Bachem Americas, Torrance, Calif.) MCA-SEVNLDAEFR-DNP (SEQ ID NO.: 2). The substrate was derived from 10 amino acids of the human amyloid precursor protein (APP), with the Swedish variant amino acids at the beta-secretase cleavage site. The terminal amino acid was modified from arginine to lysine to facilitate derivatization with a functional group for detection by autofluorescence. The amino acid sequence of the “core” peptide of the substrate is SEVNLDAEFK (SEQ ID NO.: 3). The amino terminus was derivatized with (7-methoxycoumarin-4-yl)acetyl (MCA), and the epsilon amine of the lysine side chain of the terminal residue (K in sequence SEVNLDAEFK (SEQ ID NO.: 3)) was derivatized with 2,4-dinitorphenyl (DNP).
On to `Cc1coc([C@H]2CCCN2C(=O)c2cccc(C(=O)N[C@@H](Cc3ccccc3)[C@H](O)[C@H]3CCCN3C(=O)OC(C)(C)C)c2)n1` [1-3, (R)-tert-butyl 2-((1S,2S)-1-hydroxy-2-(3-((R)-2-(4-methyloxazol-2-yl)pyrrolidine-1-carbonyl)benzamido)-3-phenylpropyl)pyrrolidine-1-carboxylate], for which the inhibition constant (Ki) is greater than 750 nM.

On to `Cc1csc([C@H]2CCCN2C(=O)c2cccc(C(=O)N[C@@H](Cc3ccccc3)[C@H](O)[C@H]3CC[C@@H](c4ccccc4)N3)c2)n1` [1-29, N-((1R,2S)-1-hydroxy-3-phenyl-1-((2R,5S)-5-phenylpyrrolidin-2-yl)propan-2-yl)-3-((R)-2-(4-methylthiazol-2-yl)pyrrolidine-1-carbonyl)benzamide], for which the Ki is greater than 750 nM.

Turning to `Cc1csc(CN(C)C(=O)c2cc(C(=O)N[C@@H](Cc3ccccc3)[C@H](O)[C@H]3CCCN3)cc(-c3ccc(F)cc3F)c2)n1` [1-30, 2′,4′-difluoro-N3-((1R,2S)-1-hydroxy-3-phenyl-1-((R)-pyrrolidin-2-yl)propan-2-yl)-N5-methyl-N5-((4-methylthiazol-2-yl)methyl)biphenyl-3,5-dicarboxamide], the Ki is less than 250 nM.

Consider `Cc1csc([C@H]2CCCN2C(=O)c2cccc(C(=O)N[C@@H](Cc3ccccc3)[C@H](O)[C@@H]3CC[C@H](c4ccccc4)N3)c2)n1` [1-31, N-((1R,2S)-1-hydroxy-3-phenyl-1-((2S,5R)-5-phenylpyrrolidin-2-yl)propan-2-yl)-3-((R)-2-(4-methylthiazol-2-yl)pyrrolidine-1-carbonyl)benzamide], for which the Ki is greater than 750 nM.

Consider `Cc1csc([C@H]2CCCN2C(=O)c2cc(C(=O)N[C@@H](Cc3ccccc3)[C@H](O)[C@H]3C[C@H](F)CN3)cc(-c3ncco3)c2)n1` [1-38, N-((1R,2S)-1-((2R,4S)-4-fluoropyrrolidin-2-yl)-1-hydroxy-3-phenylpropan-2-yl)-3-((R)-2-(4-methylthiazol-2-yl)pyrrolidine-1-carbonyl)-5-(oxazol-2-yl)benzamide], for which the Ki is less than 250 nM.

In the case of `Cc1csc(CN(C)C(=O)c2cccc(C(=O)N[C@@H](Cc3cccc(F)c3)[C@H](O)[C@H]3CCCN3)c2)n1` [1-54, N1-((1R,2S)-3-(3-fluorophenyl)-1-hydroxy-1-((R)-pyrrolidin-2-yl)propan-2-yl)-N3-methyl-N3-((4-methylthiazol-2-yl)methyl)isophthalamide], the Ki is 250 to 750 nM.

For `Cc1csc([C@H]2CCCN2C(=O)c2cc(C(=O)N[C@@H](Cc3ccccc3)[C@H](O)[C@H]3CCCN3)cc([N+](=O)[O-])c2)n1` [1-55, N-((1R,2S)-1-hydroxy-3-phenyl-1-((R)-pyrrolidin-2-yl)propan-2-yl)-3-((R)-2-(4-methylthiazol-2-yl)pyrrolidine-1-carbonyl)-5-nitrobenzamide], the inhibitory constant (Ki) was less than 250 nM.

Take `Cc1csc([C@H]2CCCN2C(=O)c2cc(Cl)cc(C(=O)N[C@@H](Cc3ccccc3)[C@H](O)[C@H]3CCCN3)c2)n1` [1-56, 3-chloro-N-((1R,2S)-1-hydroxy-3-phenyl-1-((R)-pyrrolidin-2-yl)propan-2-yl)-5-((R)-2-(4-methylthiazol-2-yl)pyrrolidine-1-carbonyl)benzamide]: the inhibition constant Ki is less than 250 nM.

For `Cc1csc([C@H]2CCCN2C(=O)c2cccc(C(=O)N[C@@H](Cc3ccccc3)[C@H](O)[C@@H]3NCCC3(F)F)c2)n1` [1-57, N-((1S,2S)-1-((S)-3,3-difluoropyrrolidin-2-yl)-1-hydroxy-3-phenylpropan-2-yl)-3-((R)-2-(4-methylthiazol-2-yl)pyrrolidine-1-carbonyl)benzamide], the Ki is less than 250 nM.

On to `Cc1csc([C@H]2CCCN2C(=O)c2cc(C(=O)N[C@@H](Cc3ccccc3)[C@H](O)[C@H]3CC[C@@H](C)N3)cc(-n3cccc3)c2)n1` [1-58, N-((1R,2S)-1-hydroxy-1-((2R,5R)-5-methylpyrrolidin-2-yl)-3-phenylpropan-2-yl)-3-((R)-2-(4-methylthiazol-2-yl)pyrrolidine-1-carbonyl)-5-(1H-pyrrol-1-yl)benzamide], for which the Ki was in the range of 250 to 750 nM.

For `Cc1csc([C@H]2CCCN2C(=O)c2cc(C(=O)N[C@@H](Cc3ccccc3)[C@H](O)[C@H]3C[C@H](F)CN3)cc(-n3cccc3)c2)n1` [1-59, N-((1R,2S)-1-((2R,4S)-4-fluoropyrrolidin-2-yl)-1-hydroxy-3-phenylpropan-2-yl)-3-((R)-2-(4-methylthiazol-2-yl)pyrrolidine-1-carbonyl)-5-(1H-pyrrol-1-yl)benzamide], the inhibition constant Ki was less than 250 nM.

For `Cc1csc(CN(C)C(=O)c2cccc(C(=O)N[C@@H](Cc3ccccc3)[C@H](O)[C@H]3C[C@H](F)CN3)c2)n1` [1-60, N1-((1R,2S)-1-((2R,4S)-4-fluoropyrrolidin-2-yl)-1-hydroxy-3-phenylpropan-2-yl)-N3-methyl-N3-((4-methylthiazol-2-yl)methyl)isophthalamide], the Ki is greater than 750 nM.

`Cc1csc([C@H]2CCCN2C(=O)c2cc(C(=O)N[C@@H](Cc3cc(F)cc(F)c3)[C@H](O)[C@H]3CCCN3)ccn2)n1` [1-61, N-((1R,2S)-3-(3,5-difluorophenyl)-1-hydroxy-1-((R)-pyrrolidin-2-yl)propan-2-yl)-2-((R)-2-(4-methylthiazol-2-yl)pyrrolidine-1-carbonyl)isonicotinamide]: the Ki lay in the range of 250 to 750 nM.

With `Cc1csc([C@H]2CCCN2C(=O)c2cc(C(=O)N[C@@H](Cc3cc(F)cc(F)c3)[C@H](O)[C@H]3CCCN3)cc(C3CC3)c2)n1` [1-62, 3-cyclopropyl-N-((1R,2S)-3-(3,5-difluorophenyl)-1-hydroxy-1-((R)-pyrrolidin-2-yl)propan-2-yl)-5-((R)-2-(4-methylthiazol-2-yl)pyrrolidine-1-carbonyl)benzamide], the inhibition constant Ki is less than 250 nM.

In the case of `Cc1csc([C@H]2CCCN2C(=O)c2cc(C(=O)N[C@@H](Cc3cc(F)cc(F)c3)[C@H](O)[C@H]3CCCN3)cc(-c3cnccn3)c2)n1` [1-63, N-((1R,2S)-3-(3,5-difluorophenyl)-1-hydroxy-1-((R)-pyrrolidin-2-yl)propan-2-yl)-3-((R)-2-(4-methylthiazol-2-yl)pyrrolidine-1-carbonyl)-5-(pyrazin-2-yl)benzamide], the Ki is less than 250 nM.

Take `Cc1csc([C@H]2CCCN2C(=O)c2cccc(C(=O)N[C@@H](Cc3ccc(F)cc3)[C@H](O)[C@H]3CCCN3)c2)n1` [1-65, N-((1R,2S)-3-(4-fluorophenyl)-1-hydroxy-1-((R)-pyrrolidin-2-yl)propan-2-yl)-3-((R)-2-(4-methylthiazol-2-yl)pyrrolidine-1-carbonyl)benzamide]: the Ki lay within 250 to 750 nM.

`Cc1csc(CN(C)C(=O)c2cccc(C(=O)N[C@@H](Cc3ccc(F)cc3)[C@H](O)[C@H]3CCCN3)c2)n1` [1-66, N1-((1R,2S)-3-(4-fluorophenyl)-1-hydroxy-1-((R)-pyrrolidin-2-yl)propan-2-yl)-N3-methyl-N3-((4-methylthiazol-2-yl)methyl)isophthalamide]: the inhibitory constant (Ki) is greater than 750 nM.

On to `Cc1csc([C@H]2CCCN2C(=O)c2cccc(C(=O)N[C@@H](Cc3ccccc3)[C@H](O)[C@H]3CCC(C)(C)N3)c2)n1` [1-67, N-((1R,2S)-1-((R)-5,5-dimethylpyrrolidin-2-yl)-1-hydroxy-3-phenylpropan-2-yl)-3-((R)-2-(4-methylthiazol-2-yl)pyrrolidine-1-carbonyl)benzamide], for which the Ki is greater than 750 nM.

Turning to `Cc1csc([C@H]2CCCN2C(=O)c2cc(C(=O)N[C@@H](Cc3ccccc3)[C@H](O)[C@H]3CCCN3)cc(S(C)(=O)=O)c2)n1` [1-68, N-((1R,2S)-1-hydroxy-3-phenyl-1-((R)-pyrrolidin-2-yl)propan-2-yl)-3-(methylsulfonyl)-5-((R)-2-(4-methylthiazol-2-yl)pyrrolidine-1-carbonyl)benzamide], the Ki is less than 250 nM.

Take `Cc1csc([C@H]2CCCN2C(=O)c2cc(C(=O)N[C@@H](Cc3ccccc3)[C@H](O)[C@H]3CCCN3)cc(C(F)(F)F)c2)n1` [1-72, N-((1R,2S)-1-hydroxy-3-phenyl-1-((R)-pyrrolidin-2-yl)propan-2-yl)-3-((R)-2-(4-methylthiazol-2-yl)pyrrolidine-1-carbonyl)-5-(trifluoromethyl)benzamide]: the Ki was less than 250 nM.

Turning to `Cc1csc([C@H]2CCCN2C(=O)c2cc(C(=O)N[C@@H](Cc3ccccc3)[C@H](O)[C@H]3CCCN3)cc(-n3ccnc3)c2)n1` [1-77, N-((1R,2S)-1-hydroxy-3-phenyl-1-((R)-pyrrolidin-2-yl)propan-2-yl)-3-(1H-imidazol-1-yl)-5-((R)-2-(4-methylthiazol-2-yl)pyrrolidine-1-carbonyl)benzamide], the Ki is 250 to 750 nM.

Turning to `Cc1csc([C@H]2CCCN2C(=O)c2cccc(C(=O)N[C@@H](Cc3ccccc3)[C@@H](O)[C@H]3CCCN3)c2)n1` [1-80, N-((1S,2S)-1-hydroxy-3-phenyl-1-((R)-pyrrolidin-2-yl)propan-2-yl)-3-((R)-2-(4-methylthiazol-2-yl)pyrrolidine-1-carbonyl)benzamide], the Ki is greater than 750 nM.

Turning to `CO[C@H]1CN[C@@H]([C@@H](O)[C@H](Cc2ccccc2)NC(=O)c2cc(C(=O)N3CCC[C@@H]3c3nc(C)cs3)cc(-c3ncco3)c2)C1` [1-81, N-((1R,2S)-1-hydroxy-1-((2R,4R)-4-methoxypyrrolidin-2-yl)-3-phenylpropan-2-yl)-3-((R)-2-(4-methylthiazol-2-yl)pyrrolidine-1-carbonyl)-5-(oxazol-2-yl)benzamide], the Ki is less than 250 nM.
